Measured values: the supplement of paper PMC10307832

How the values were obtained:
Experiment in all cases: relative viability (nuclei count vs DMSO), 5 days (fraction); higher = more cells survive
[1] = compound: C/C(=N\NC(=S)N1CCC1)/C2=CC=CC=N2 + COc1cccc2cc(-c3nc([C@H]4CC[C@H](C(=O)O)CC4)n4ncnc(N)c34)[nH]c12 [OSI-027] (partner 0.5 µM)
How it was run: (§1)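 Relative viability equals treated-well nuclei counts divided by vehicle-well nuclei counts. Counts came from 4× images of lung cancer cell lines grown in 1536-well plates for 5 days after pin-tool dosing on the day after seeding. Dosing used one drug alone or a fixed anchor-drug dose plus five library-drug doses (not always all listed) in √10 steps, and values are medians of duplicate plates.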

[2] = compound: C/C(=N\NC(=S)N1CCC1)/C2=CC=CC=N2 + CS(=O)(=O)CCNCc1ccc(-c2ccc3ncnc(Nc4ccc(OCc5cccc(F)c5)c(Cl)c4)c3c2)o1 [Lapatinib] (partner 2 µM)
How it was run: as §1

[3] = compound: C/C(=N\NC(=S)N1CCC1)/C2=CC=CC=N2 + C[C@]1(O)C[C@@H](c2nc(-c3ccc4ccc(-c5ccccc5)nc4c3)c3c(N)nccn32)C1 [Linsitinib] (partner 1 µM)
How it was run: as §1

[4] = compound: C/C(=N\NC(=S)N1CCC1)/C2=CC=CC=N2 + Cc1nc(NC(=O)N2CCC[C@H]2C(N)=O)sc1-c1ccnc(C(C)(C)C(F)(F)F)c1 [Alpelisib] (partner 2 µM)
How it was run: as §1

Cell Line	relative viability ([1]; first compound 0.05 µM)	relative viability ([1]; first compound 0.1581 µM)	relative viability ([1]; first compound 0.5 µM)	relative viability ([1]; first compound 1.581 µM)	relative viability ([1]; first compound 5 µM)	relative viability ([2]; first compound 0.05 µM)	relative viability ([2]; first compound 0.1581 µM)	relative viability ([2]; first compound 0.5 µM)	relative viability ([2]; first compound 1.581 µM)	relative viability ([2]; first compound 5 µM)	relative viability ([3]; first compound 0.05 µM)	relative viability ([3]; first compound 0.1581 µM)	relative viability ([3]; first compound 0.5 µM)	relative viability ([3]; first compound 1.581 µM)	relative viability ([3]; first compound 5 µM)	relative viability ([4]; first compound 0.05 µM)	relative viability ([4]; first compound 0.1581 µM)	relative viability ([4]; first compound 0.5 µM)	relative viability ([4]; first compound 1.581 µM)	relative viability ([4]; first compound 5 µM)
NCI-H23	0.136	0.127	0.154	0.137	0.143	0.169	0.168	0.171	0.151	0.166	0.134	0.196	0.13	0.124	0.151	0.128	0.148	0.141	0.128	0.155
NCI-H322M	0.325	0.351	0.321	0.288	0.337	0.258	0.281	0.222	0.243	0.301	0.291	0.876	0.197	0.245	0.319	0.318	0.844	0.186	0.258	0.254
NCI-H358	0.0802	0.0946	0.0796	0.0601	0.0821	0.233	0.247	0.244	0.193	0.199	0.179	0.196	0.163	0.125	0.181	0.196	0.174	0.142	0.118	0.155
NCI-H460	0.0284	0.0249	0.0234	0.0201	0.0147	0.0117	0.0152	0.017	0.015	0.0086	0.0136	0.0148	0.0172	0.0108	0.005	0.0117	0.0186	0.0138	0.0126	0.0076
NCI-H520	0.153	0.192	0.158	0.169	0.242	0.131	0.148	0.12	0.12	0.144	0.164	0.145	0.123	0.116	0.169	0.159	0.144	0.124	0.138	0.154
NCI-H596	0.259	0.253	0.281	0.226	0.263	0.339	0.293	0.221	0.228	0.299	0.912	0.344	0.251	0.208	0.257	0.371	0.256	0.267	0.227	0.313
NCI-H647	0.0818	0.107	0.109	0.117	0.0913	0.139	0.0972	0.11	0.0821	0.0828	0.148	0.103	0.159	0.0971	0.0901	0.135	0.0873	0.114	0.0898	0.0916
NCI-H650	0.162	0.228	0.194	0.211	0.198	0.174	0.294	0.23	0.168	0.203	0.214	0.262	0.251	0.153	0.18	0.187	0.252	0.271	0.225	0.169
NCI-H661	0.243	0.208	0.169	0.188	0.19	0.187	0.184	0.2	0.201	0.198	0.186	0.218	0.191	0.196	0.212	0.153	0.268	0.145	0.172	0.202
NCI-H727	0.229	0.258	0.289	0.244	0.364	0.194	0.222	0.25	0.232	0.267	0.203	0.115	0.213	0.222	0.238	0.191	0.152	0.19	0.175	0.147
NCI-H838	0.167	0.179	0.19	0.129	0.142	0.185	0.186	0.212	0.149	0.164	0.241	0.224	0.198	0.183	0.143	0.243	0.211	0.189	0.189	0.172
NCI-H1355	0.201	0.213	0.208	0.18	0.178	0.203	0.238	0.205	0.167	0.18	0.259	0.632	0.193	0.182	0.181	0.205	0.545	0.149	0.145	0.156
NCI-H1395	0.291	0.388	0.31	0.29	0.364	0.314	0.424	0.355	0.315	0.412	0.374	0.336	0.307	0.353	0.36	0.4	0.354	0.423	0.354	0.463
NCI-H1437	0.19	0.174	0.174	0.135	0.106	0.127	0.128	0.109	0.0868	0.0855	0.114	0.122	0.103	0.0866	0.0787	0.114	0.127	0.0974	0.0875	0.0851
NCI-H1563	0.5	0.541	0.506	0.541	0.542	0.626	0.61	0.573	0.598	0.623	0.684	0.541	0.563	0.612	0.629	0.528	0.493	0.492	0.573	0.596
NCI-H1651	0.152	0.165	0.13	0.0837	0.093	0.117	0.119	0.131	0.0681	0.0861	0.131	0.126	0.122	0.0894	0.0655	0.149	0.112	0.138	0.0797	0.0683
